This note sets out measurements from patent US20170157055A1, “PHAR[…] DETERRENT COMPOSITION” (priority 2014, published 2017).

Structures are written as SMILES. Like-named read-outs stand apart in the source and are kept apart here.

The procedure of the data set: 350 mg of potassium bicarbonate equivalent to single dosage unit was added in beaker 1 while of potassium bicarbonate equivalent to three dosage units were added in beaker 2.

Regarding `O=C([O-])O.[K+]` [potassium bicarbonate], the “pH of media after addition” value by setting is: (beaker 1: 350 mg (single dosage unit) in 900 ml 0.01N HCl (initial pH 1.90)) 2.30; (beaker 2: equivalent to three dosage units in 900 ml 0.01N HCl (initial pH 1.90)) 6.15.
